In ChEMBL document CHEMBL1151675, “Novel marine di-Z-carotenoids: cucumariaxanthins A, B, and C from the sea cucumber Cucumaria japonica” (J Nat Prod, 1996) one finds viability data, which are given here for 4 compounds.

Assay type in all cases: cell-based
Conditions in all cases: read-out: Activity

Data set [1] in a line: Cytotoxicity against human Raji cells assessed as cell viability at 100 molar ratio.
The nature of data set [2]: Cytotoxicity against human Raji cells assessed as cell viability at 500 molar ratio.
Data set [3] in a line: Cytotoxicity against human Raji cells assessed as cell viability at 1000 molar ratio.
Data set [4] can be described thus: Cytotoxicity against human Raji cells assessed as cell viability at 10 molar ratio.

`CC(=C/C=C/C(C)=C/C=C/C=C(C)/C=C/C=C(C)\C=C\[C@H]1[C@H](C)C(=O)CCC1(C)C)/C=C/[C@H]1[C@H](C)[C@@H](O)CCC1(C)C`: in data set [1], the viability at 100 molar ratio was above 80%. Moreover, the viability at 500 molar ratio in data set [2] was above 80%. The viability at 1000 molar ratio in data set [3] came to 70%. Besides, in data set [4], the viability at 10 molar ratio is above 80%.
For `CC(=C/C=C/C(C)=C/C=C/C=C(C)/C=C/C=C(C)\C=C\[C@H]1[C@H](C)[C@@H](O)CCC1(C)C)/C=C/[C@H]1[C@H](C)[C@@H](O)CCC1(C)C`, the viability at 100 molar ratio in data set [1] is above 80%. Moreover, in data set [2], the viability at 500 molar ratio is 70%. Besides, the viability at 1000 molar ratio in data set [3] was found to be 70%. For the same compound, in data set [4], the viability at 10 molar ratio is above 80%.
Regarding `CC1=C(/C=C/C(C)=C/C=C/C(C)=C/C=C/C=C(C)/C=C/C=C(C)/C=C/C2=C(C)CCCC2(C)C)C(C)(C)CCC1` [BETA CAROTENE], in data set [1], the viability at 100 molar ratio was above 80%. Besides, the viability at 500 molar ratio in data set [2] is above 80%. In data set [3], the viability at 1000 molar ratio was found to be 70%. In addition, the viability at 10 molar ratio in data set [4] is above 80%.
Consider `CC(=C/C=C/C(C)=C/C=C/C=C(C)/C=C/C=C(C)\C=C\[C@H]1[C@H](C)C(=O)CCC1(C)C)/C=C/[C@H]1[C@H](C)C(=O)CCC1(C)C` [CUCUMARIAXANTHIN A], for which the viability at 100 molar ratio in data set [1] was above 80%. Besides, the viability at 500 molar ratio in data set [2] was above 80%. Also, the viability at 1000 molar ratio in data set [3] came out at 70%. Also, the viability at 10 molar ratio in data set [4] was above 80%.
